Measurements from patent US10336702B2, “Pharmaceutically active compounds” (BERGENBIO ASA, priority 2015, dated 2019).

What was measured:
p-Akt3 in WM115 cells = biological target: T1, p-Akt3 in WM115 cells (Homo sapiens, UniProt Q9Y243); assay: Phospho-Akt cellular SureFire assay, p-Akt3 in WM115 cells; type: cell-based; settings: insulin stimulated, read-out: Biological Assay 2 IC50 (nM) Akt3 WM115
T1 construct: SureFire assays to detect cellular p-Akt1, p-Akt2 and p-Akt3 levels in WM115 cells (Akt2/3) and LNCaP cells (Akt1); endogenous in cells; host or cells: WM115 (ECACC 91061232), insulin-stimulated
T1 sequence (Q9Y243 whole entry): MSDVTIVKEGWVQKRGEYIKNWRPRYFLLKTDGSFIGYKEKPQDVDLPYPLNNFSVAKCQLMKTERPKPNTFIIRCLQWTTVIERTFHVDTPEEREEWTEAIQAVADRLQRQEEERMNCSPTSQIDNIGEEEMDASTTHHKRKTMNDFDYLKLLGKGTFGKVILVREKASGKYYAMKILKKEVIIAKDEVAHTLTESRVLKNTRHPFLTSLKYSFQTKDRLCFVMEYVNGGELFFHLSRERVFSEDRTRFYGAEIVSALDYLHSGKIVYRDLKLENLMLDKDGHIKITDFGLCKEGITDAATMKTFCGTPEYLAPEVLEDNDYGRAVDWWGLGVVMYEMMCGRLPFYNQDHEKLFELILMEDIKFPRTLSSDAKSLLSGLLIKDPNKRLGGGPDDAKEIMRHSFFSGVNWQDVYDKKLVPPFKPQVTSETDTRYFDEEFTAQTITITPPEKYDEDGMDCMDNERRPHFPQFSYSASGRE
Summary of the method: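 WM115 cells were serum-reduced to 0.1% FBS, stimulated with 100 nM insulin for 10 min, then exposed to compound (0.3% DMSO) for 15 min at 37 °C. Lysates were assayed for Thr308-phosphorylated Akt3 by AlphaScreen SureFire using an isoform-specific total Akt3 capture antibody. IC50 was derived from a 4-parameter fit.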

Akt2 = biological target: T2, Akt2 (Homo sapiens, UniProt P31751); assay: Akt activation assay (PDK1-mediated activation, LANCE Ultra crosstide TR-FRET), Akt2; type: biochemical; settings: read-out: Biological Assay 1 IC50 (nM) Akt2
T2 construct: unspecified tag, removed (detagged) (cleaved yes); purchased SignalChem and Proteros (Akt2); Merck Millipore (PDK1) 14-452 (PDK1); none given for Akt2
T2 sequence (P31751 whole entry): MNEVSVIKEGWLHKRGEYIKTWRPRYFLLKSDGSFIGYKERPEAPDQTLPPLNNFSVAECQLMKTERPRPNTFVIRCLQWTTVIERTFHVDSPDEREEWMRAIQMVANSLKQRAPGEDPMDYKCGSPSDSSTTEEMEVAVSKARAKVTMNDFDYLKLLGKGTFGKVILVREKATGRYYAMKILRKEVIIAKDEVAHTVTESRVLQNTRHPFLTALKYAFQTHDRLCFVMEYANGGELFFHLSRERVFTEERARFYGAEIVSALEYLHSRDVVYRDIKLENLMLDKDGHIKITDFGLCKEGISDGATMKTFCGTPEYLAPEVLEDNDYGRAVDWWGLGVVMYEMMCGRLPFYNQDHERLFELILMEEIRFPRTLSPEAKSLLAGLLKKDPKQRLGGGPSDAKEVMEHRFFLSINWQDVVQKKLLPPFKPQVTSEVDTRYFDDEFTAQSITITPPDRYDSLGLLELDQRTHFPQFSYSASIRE
Summary of the method: (§1)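 Compound + Akt preinc.; start w/ PDK1 5 nM, DOPS/DOPC 5.5 μM each, PIP3 0.55 μM, ATP 100 μM, Ulight-crosstide 100 nM; HEPES pH 7.5, 10 mM MgCl2, 2 mM DTT, 1% DMSO; 30 min; EDTA stop; Eu-Ab TR-FRET; 4-PL IC50.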

p-Akt2 in WM115 cells = biological target: T3, p-Akt2 in WM115 cells (Homo sapiens, UniProt P31751); assay: Phospho-Akt cellular SureFire assay, p-Akt2 in WM115 cells; type: cell-based; settings: insulin stimulated, read-out: Biological Assay 2 IC50 (nM) Akt2 WM115
T3 construct: SureFire assays to detect cellular p-Akt1, p-Akt2 and p-Akt3 levels in WM115 cells (Akt2/3) and LNCaP cells (Akt1); endogenous in cells; host or cells: WM115 (ECACC 91061232), insulin-stimulated
T3 sequence (P31751 whole entry): as above
Summary of the method: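 WM115 cells in 0.1% FBS medium stimulated 10 min with 100 nM insulin, then exposed to compound for 15 min at 37° C (0.3% DMSO final). Lysates assayed by AlphaScreen with anti-(pThr308)Akt and isoform-specific total Akt2 antibodies; IC50 from 4-parameter fit.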

Akt1 = biological target: T4, Akt1 (Homo sapiens, UniProt P31749); assay: Akt activation assay (PDK1-mediated activation, LANCE Ultra crosstide TR-FRET), Akt1; type: biochemical; settings: read-out: Biological Assay 1 IC50 (nM) Akt1
T4 construct: unspecified tag, removed (detagged) (cleaved yes); purchased SignalChem and Proteros (Akt1); Merck Millipore (PDK1) 14-452 (PDK1); none given for Akt1
T4 sequence (P31749 whole entry): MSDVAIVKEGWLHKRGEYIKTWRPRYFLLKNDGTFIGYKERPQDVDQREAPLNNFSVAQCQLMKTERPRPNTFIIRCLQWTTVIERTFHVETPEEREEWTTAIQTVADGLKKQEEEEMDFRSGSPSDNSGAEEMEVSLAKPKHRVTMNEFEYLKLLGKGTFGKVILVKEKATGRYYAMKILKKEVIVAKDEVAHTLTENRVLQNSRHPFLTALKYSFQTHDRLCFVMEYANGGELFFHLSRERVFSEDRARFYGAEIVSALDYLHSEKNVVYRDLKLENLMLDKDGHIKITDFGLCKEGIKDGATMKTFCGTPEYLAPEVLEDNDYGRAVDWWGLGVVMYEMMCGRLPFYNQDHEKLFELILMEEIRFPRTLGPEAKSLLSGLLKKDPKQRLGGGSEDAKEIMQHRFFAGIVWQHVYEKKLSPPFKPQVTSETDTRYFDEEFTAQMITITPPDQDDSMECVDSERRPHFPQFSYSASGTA
Summary of the method: as §1

p-Akt1 in LNCaP cells = biological target: T5, p-Akt1 in LNCaP cells (Homo sapiens, UniProt P31749); assay: Phospho-Akt cellular SureFire assay, p-Akt1 in LNCaP cells; type: cell-based; settings: read-out: Biological Assay 2 IC50 (nM) Akt1 LNCaP
T5 construct: SureFire assays to detect cellular p-Akt1, p-Akt2 and p-Akt3 levels in WM115 cells (Akt2/3) and LNCaP cells (Akt1); endogenous in cells; host or cells: LNCaP (ECACC 89110211)
T5 sequence (P31749 whole entry): as above
Summary of the method: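 LNCaP cells, 5×10^4/well, seeded overnight, switched to 0.1% FBS medium without insulin stimulation, then compound for 15 min at 37 °C (0.3% DMSO). Lysate p-Akt1 (pThr308) by AlphaScreen SureFire, two 2 h incubations at room temperature; IC50 by 4-parameter fit.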

Akt3 = biological target: T6, Akt3 (Homo sapiens, UniProt Q9Y243); assay: Akt activation assay (PDK1-mediated activation, LANCE Ultra crosstide TR-FRET), Akt3; type: biochemical; settings: read-out: Biological Assay 1 IC50 (nM) Akt3
T6 construct: unspecified tag, removed (detagged) (cleaved yes); purchased SignalChem and Proteros (Akt3); Merck Millipore (PDK1) 14-452 (PDK1); none given for Akt3
T6 sequence (Q9Y243 whole entry): as the sequence (Q9Y243 whole entry) above
Summary of the method: as §1

| SMILES | IC50 (p-Akt3 in WM115 cells) [nM] | IC50 (Akt2) [nM] | IC50 (p-Akt2 in WM115 cells) [nM] | IC50 (Akt1) [nM] | IC50 (p-Akt1 in LNCaP cells) [nM] | IC50 (Akt3) [nM] |
| --- | --- | --- | --- | --- | --- | --- |
| CC(=O)NC1CCC(CC(=O)Nc2cnc(-c3ccc([C@]4(N)C[C@](C)(O)C4)cc3)c(-c3ccccc3)c2)CC1 (stereo partly drawn) [Example 2, 2-(trans-4-acetamidocyclohexyl)-N-(6-(4-(trans-1-amino-3-hydroxy-3-methylcyclobutyl)phenyl)-5-phenylpyridin-3-yl)acetamide] | 150 | 94 | 4400 | 980 | 8700 | 20 |
| CC(=O)N(C)[C@H]1CC[C@H](CC(=O)Nc2cnc(-c3ccc(C(C)(C)N)cc3)c(-c3ccccc3)c2)CC1 [Example 3, N-(6-(4-(2-aminopropan-2-yl)phenyl)-5-phenylpyridin-3-yl)-2-(trans-4-(N-methylacetamido)cyclohexyl)acetamide] | 170 | > 30000 | 10000 | > 30000 | > 26000 | 72 |
| CC(C)C(=O)N(C)[C@H]1CC[C@H](CC(=O)Nc2cnc(-c3ccc(C(C)(C)N)cc3)c(-c3ccccc3)c2)CC1 [Example 4, N-(trans-4-(2-((6-(4-(2-aminopropan-2-yl)phenyl)-5-phenylpyridin-3-yl)amino)-2-oxoethyl)cyclohexyl)-N-methylisobutyramide] | 190 | 7300 | 7400 | > 30000 | > 30000 | 73 |
| CC(=O)N(C)[C@H]1CC[C@H](CC(=O)Nc2cnc(-c3ccc(C(C)(C)N)cc3)c(-c3ccsc3)c2)CC1 [Example 6, N-(6-(4-(2-aminopropan-2-yl)phenyl)-5-(thiophen-3-yl)pyridin-3-yl)-2-(trans-4-(N-methylacetamido)cyclohexyl)acetamide] | 340 | > 24000 | > 21000 | > 30000 | > 30000 | 720 |
| CC(=O)N(C)[C@H]1CC[C@H](CC(=O)Nc2cnc(-c3ccc([C@H](C)N)cc3)c(-c3ccccc3)c2)CC1 [Example 7, N-(6-(4-((S)-1-aminoethyl)phenyl)-5-phenylpyridin-3-yl)-2-(trans-4-(N-methylacetamido)cyclohexyl)acetamide] | 300 | 9200 | 10000 | > 30000 | > 30000 | 350 |
| CC(=O)N(C)[C@H]1CC[C@H](CC(=O)Nc2cnc(-c3ccc(C(C)(C)N)cc3)c(-c3ccccc3F)c2)CC1 [Example 9, N-(6-(4-(2-aminopropan-2-yl)phenyl)-5-(2-fluorophenyl)pyridin-3-yl)-2-(trans-4-(N-methylacetamido)cyclohexyl)acetamide] | 110 | 2500 | 3500 | > 30000 | > 30000 | 150 |
| CC(=O)N(C)[C@H]1CC[C@H](CC(=O)Nc2cnc(-c3ccc(C4(N)CCC4)cc3)c(-c3ccccc3)c2)CC1 [Example 10, N-(6-(4-(1-aminocyclobutyl)phenyl)-5-phenylpyridin-3-yl)-2-(trans-4-(N-methylacetamido)cyclohexyl)acetamide] | 39 | 260 | 970 | 6200 | 6700 | 30 |
| CC(=O)N[C@H]1CC[C@H](CC(=O)Nc2cnc(-c3ccc([C@]4(N)C[C@H](F)C4)cc3)c(-c3ccccc3)c2)CC1 [Example 15, 2-(trans-4-acetamidocyclohexyl)-N-(6-(4-(trans-1-amino-3-fluorocyclobutyl)phenyl)-5-phenylpyridin-3-yl)acetamide] | 21 | 580 | 1100 | 7700 | > 22000 | 180 |
| CC(=O)N(C)[C@H]1CC[C@H](CC(=O)Nc2cnc(-c3ccc(C4(N)CCC4)cc3)c(-c3ccccc3F)c2)CC1 [Example 16, N-(6-(4-(1-aminocyclobutyl)phenyl)-5-(2-fluorophenyl)pyridin-3-yl)-2-(trans-4-(N-methylacetamido)cyclohexyl)acetamide] | 45 | 380 | 710 | 7800 | 11000 | 24 |
| CN([C@H]1CC[C@H](CC(=O)Nc2cnc(-c3ccc(C4(N)CCC4)cc3)c(-c3ccsc3)c2)CC1)S(C)(=O)=O [Example 17, N-(6-(4-(1-aminocyclobutyl)phenyl)-5-(thiophen-3-yl)pyridin-3-yl)-2-(trans-4-(N-methylmethylsulfonamido)cyclohexyl)acetamide] | 140 | 1200 | 1900 | > 26000 | 7100 | 48 |
| CC(=O)N[C@H]1CC[C@H](CC(=O)Nc2cnc(-c3ccc(C4(N)CCC4)cc3)c(-c3ccsc3C)c2)CC1 [Example 18, 2-(trans-4-acetamidocyclohexyl)-N-(6-(4-(1-aminocyclobutyl)phenyl)-5-(2-methylthiophen-3-yl)pyridin-3-yl)acetamide] | 1100 | 6900 | 14000 | > 30000 | > 30000 | 1300 |
| CC(C)(N)c1ccc(-c2ncc(NC(=O)C[C@H]3CC[C@H](N4CCCC4=O)CC3)cc2-c2ccccc2)cc1 [Example 24, N-(6-(4-(2-aminopropan-2-yl)phenyl)-5-phenylpyridin-3-yl)-2-(trans-4-(2-oxopyrrolidin-1-yl)cyclohexyl)acetamide] | 170 | 10000 | 6700 | > 30000 | > 18000 | 300 |
| CC(C)(N)c1ccc(-c2ncc(NC(=O)C[C@H]3CC[C@H](NC(=O)C4CC4)CC3)cc2-c2ccsc2)cc1 [Example 26, N-(trans-4-(2-((6-(4-(2-aminopropan-2-yl)phenyl)-5-(thiophen-3-yl)pyridin-3-yl)amino)-2-oxoethyl)cyclohexyl)cyclopropanecarboxamide] | 380 | 12000 | 9000 | > 30000 | > 16000 | 1600 |
| CN(C(=O)C1CC1)[C@H]1CC[C@H](CC(=O)Nc2cnc(-c3ccc(C(C)(C)N)cc3)c(-c3ccsc3)c2)CC1 [Example 27, N-(trans-4-(2-((6-(4-(2-aminopropan-2-yl)phenyl)-5-(thiophen-3-yl)pyridin-3-yl)amino)-2-oxoethyl)cyclohexyl)-N-methylcyclopropanecarboxamide] | 380 | 12000 | 10000 | > 30000 | > 30000 | 680 |
| CC(C)(N)c1ccc(-c2ncc(NC(=O)C[C@H]3CC[C@H](NC(=O)CC4CC4)CC3)cc2-c2ccccc2)cc1 [Example 29, N-(6-(4-(2-aminopropan-2-yl)phenyl)-5-phenylpyridin-3-yl)-2-(trans-4-(2-cyclopropylacetamido)cyclohexyl)acetamide] | 170 | 2200 | 8400 | > 33000 | > 13000 | 53 |
| CC(=O)N(C)[C@H]1CC[C@H](CC(=O)Nc2cc(-c3ccccc3)c(-c3ccc(C(C)(C)N)cc3)nn2)CC1 [Example 30, N-(6-(4-(2-aminopropan-2-yl)phenyl)-5-phenylpyridazin-3-yl)-2-(trans-4-(N-methylacetamido)cyclohexyl)acetamide] | 72 | 12000 | 6800 | > 30000 | > 30000 | 470 |
| CC(=O)N(C)[C@H]1CC[C@H](CC(=O)Nc2cnc(-c3ccc(C(C)(C)N)c(F)c3)c(-c3ccccc3)c2)CC1 [Example 31, N-(6-(4-(2-aminopropan-2-yl)-3-fluorophenyl)-5-phenylpyridin-3-yl)-2-(trans-4-(N-methylacetamido)cyclohexyl)acetamide] | 440 | > 15000 | > 30000 | > 30000 | > 30000 | 1700 |
